Key:
lambsquarters [1] = experiment: Test Example 4: herbicidal effect by soil treatment (Table 19, symbol O); assay type: in vivo, lambsquarters (Chenopodium album); settings: AAH 320 g/ha
Method in brief: (§1)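 In this soil treatment, the formulated compound reached the seeds only through the soil: seeds were buried about 1.5 cm deep in sterilized diluvial soil, then the diluted emulsion was sprayed over the surface. After three weeks at 25° C. to 30° C. in a greenhouse, effects were graded on criteria from an earlier test.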

blackgrass [2] = experiment: Test Example 4: herbicidal effect by soil treatment (Table 19, symbol J); assay type: in vivo, blackgrass (Alopecurus myosuroides); settings: AAH 320 g/ha
Method in brief: as §1

redroot pigweed [3] = experiment: Test Example 5: herbicidal effect by foliage application, plastic box (Table 20, symbol N); assay type: in vivo, redroot pigweed (Amaranthus retroflexus); settings: foliage application, AAH 320 g/ha, three weeks after application
Method in brief: (§2)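 Plants were sown into sterilized diluvial soil under about 1.5 cm cover and kept in a greenhouse at 25° C. to 30° C. Fourteen days on, foliage received an even spray of the diluted emulsion. Herbicidal or crop effect was judged three weeks afterwards.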

redroot pigweed [4] = experiment: Test Example 4: herbicidal effect by soil treatment (Table 19, symbol N); assay type: in vivo, redroot pigweed (Amaranthus retroflexus); settings: AAH 320 g/ha
Method in brief: as §1

lambsquarters [5] = experiment: Test Example 5: herbicidal effect by foliage application, plastic box (Table 20, symbol O); assay type: in vivo, lambsquarters (Chenopodium album); settings: foliage application, AAH 320 g/ha, three weeks after application
Method in brief: as §2

southern crabgrass [6] = experiment: Test Example 4: herbicidal effect by soil treatment (Table 19, symbol F); assay type: in vivo, southern crabgrass (Digitaria ciliaris); settings: AAH 320 g/ha
Method in brief: as §1

blackgrass [7] = experiment: Test Example 5: herbicidal effect by foliage application, plastic box (Table 20, symbol J); assay type: in vivo, blackgrass (Alopecurus myosuroides); settings: foliage application, AAH 320 g/ha, three weeks after application
Method in brief: as §2

persian speedwell [8] = experiment: Test Example 5: herbicidal effect by foliage application, plastic box (Table 20, symbol R); assay type: in vivo, Persian speedwell (Veronica persica); settings: foliage application, AAH 320 g/ha, three weeks after application
Method in brief: as §2

wild oat [9] = experiment: Test Example 4: herbicidal effect by soil treatment (Table 19, symbol I); assay type: in vivo, wild oat (Avena fatua); settings: AAH 320 g/ha
Method in brief: as §1

velvetleaf [10] = experiment: Test Example 4: herbicidal effect by soil treatment (Table 19, symbol M); assay type: in vivo, velvetleaf (Abutilon theophrasti); settings: AAH 320 g/ha
Method in brief: as §1

wild oat [11] = experiment: Test Example 5: herbicidal effect by foliage application, plastic box (Table 20, symbol I); assay type: in vivo, wild oat (Avena fatua); settings: foliage application, AAH 320 g/ha, three weeks after application
Method in brief: as §2

windgrass [12] = experiment: Test Example 4: herbicidal effect by soil treatment (Table 19, symbol L); assay type: in vivo, windgrass (Apera spica-venti); settings: AAH 320 g/ha
Method in brief: as §1

chickweed [13] = experiment: Test Example 5: herbicidal effect by foliage application, plastic box (Table 20, symbol P); assay type: in vivo, common chickweed (Stellaria media); settings: foliage application, AAH 320 g/ha, three weeks after application
Method in brief: as §2

windgrass [14] = experiment: Test Example 5: herbicidal effect by foliage application, plastic box (Table 20, symbol L); assay type: in vivo, windgrass (Apera spica-venti); settings: foliage application, AAH 320 g/ha, three weeks after application
Method in brief: as §2

persian speedwell [15] = experiment: Test Example 4: herbicidal effect by soil treatment (Table 19, symbol R); assay type: in vivo, Persian speedwell (Veronica persica); settings: AAH 320 g/ha
Method in brief: as §1

barnyard grass [16] = experiment: Test Example 3: herbicidal effect by foliage application, Wagner pot (Table 18, symbol H); assay type: in vivo, barnyard grass (Echinochloa crus-galli); settings: 320 g/ha
Method in brief: (§3)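 Plants were sown in alluvial soil held under 0.1–0.5 cm standing water and grown 14 days in a greenhouse at 25–30 °C. An emulsifiable formulation, water-diluted to the set dose, was then sprayed onto the foliage, and effects were scored three weeks later using previously defined criteria.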

velvetleaf [17] = experiment: Test Example 5: herbicidal effect by foliage application, plastic box (Table 20, symbol M); assay type: in vivo, velvetleaf (Abutilon theophrasti); settings: foliage application, AAH 320 g/ha, three weeks after application
Method in brief: as §2

green foxtail [18] = experiment: Test Example 5: herbicidal effect by foliage application, plastic box (Table 20, symbol G); assay type: in vivo, green foxtail (Setaria viridis); settings: foliage application, AAH 320 g/ha, three weeks after application
Method in brief: as §2

chickweed [19] = experiment: Test Example 4: herbicidal effect by soil treatment (Table 19, symbol P); assay type: in vivo, common chickweed (Stellaria media); settings: AAH 320 g/ha
Method in brief: as §1

Chinese sprangletop = experiment: Test Example 3: herbicidal effect by foliage application, Wagner pot (Table 18, symbol D); assay type: in vivo, chinese sprangletop (Leptochloa chinensis); settings: 320 g/ha
Method in brief: as §3

green foxtail [20] = experiment: Test Example 4: herbicidal effect by soil treatment (Table 19, symbol G); assay type: in vivo, green foxtail (Setaria viridis); settings: AAH 320 g/ha
Method in brief: as §1

late watergrass = experiment: Test Example 1: herbicidal activity, application before weed generation under submerged conditions (Table 16, symbol A); assay type: in vivo, late watergrass (Echinochloa oryzicola); settings: 320 g/ha applied herbicide
Method in brief: (§4)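 Submerged Wagner pots (alluvial soil, 4 cm water) sown with weed seeds and planted with 2.5-leaf rice seedlings; emulsifiable concentrate diluted in water applied to water surface on sowing day. Held in greenhouse at 25-30 °C; injury scored 0-5 by herbicidal rate after three weeks.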

southern crabgrass [21] = experiment: Test Example 5: herbicidal effect by foliage application, plastic box (Table 20, symbol F); assay type: in vivo, southern crabgrass (Digitaria ciliaris); settings: foliage application, AAH 320 g/ha, three weeks after application
Method in brief: as §2

barnyard grass [22] = experiment: Test Example 5: herbicidal effect by foliage application, plastic box (Table 20, symbol H); assay type: in vivo, barnyard grass (Echinochloa crus-galli); settings: foliage application, AAH 320 g/ha, three weeks after application
Method in brief: as §2

barnyard grass [23] = experiment: Test Example 4: herbicidal effect by soil treatment (Table 19, symbol H); assay type: in vivo, barnyard grass (Echinochloa crus-galli); settings: AAH 320 g/ha
Method in brief: as §1

Japanese bulrush = experiment: Test Example 1: herbicidal activity, application before weed generation under submerged conditions (Table 16, symbol B); assay type: in vivo, Japanese bulrush (Schoenoplectus juncoides); settings: 320 g/ha applied herbicide
Method in brief: as §4

Italian ryegrass [24] = experiment: Test Example 5: herbicidal effect by foliage application, plastic box (Table 20, symbol K); assay type: in vivo, Italian ryegrass (Lolium multiflorum); settings: foliage application, AAH 320 g/ha, three weeks after application
Method in brief: as §2

Italian ryegrass [25] = experiment: Test Example 4: herbicidal effect by soil treatment (Table 19, symbol K); assay type: in vivo, Italian ryegrass (Lolium multiflorum); settings: AAH 320 g/ha
Method in brief: as §1

rice flat sedge = experiment: Test Example 3: herbicidal effect by foliage application, Wagner pot (Table 18, symbol E); assay type: in vivo, rice flat sedge (Cyperus iria); settings: 320 g/ha
Method in brief: as §3

oval-leafed pondweed = experiment: Test Example 1: herbicidal activity, application before weed generation under submerged conditions (Table 16, symbol C); assay type: in vivo, oval-leafed pondweed (Monochoria vaginalis); settings: 320 g/ha applied herbicide
Method in brief: as §4

Question: With `Cc1nn(C)c(=O)c(-c2c(-c3ccc(C(C)C)cc3)sc3ccccc23)c1O` [1-125] as the compound, how does the “O: lambsquarters, herbicidal effect rating” value (lambsquarters [1]) read?
Answer: 5 (Herbicidal rate of 90% or more (almost completely withered))

Question: What about the “J: blackgrass, herbicidal effect rating” value (blackgrass [2]) of the same compound?
Answer: 0 (Herbicidal rate of 5% or less (almost no effect))

Question: And the “N: redroot pigweed, herbicidal effect” value (redroot pigweed [3])?
Answer: 5 (Herbicidal rate of 90% or more (almost completely withered))

Question: And the “N: redroot pigweed, herbicidal effect rating” value (redroot pigweed [4])?
Answer: 5 (Herbicidal rate of 90% or more (almost completely withered))

Question: And the “O: lambsquarters, herbicidal effect” value (lambsquarters [5])?
Answer: 5 (Herbicidal rate of 90% or more (almost completely withered))

Question: What about the “F: southern crabgrass, herbicidal effect rating” value (southern crabgrass [6]) of the same compound?
Answer: 1 (Herbicidal rate of 5% or more and less than 20%)

Question: What about the “J: blackgrass, herbicidal effect” value (blackgrass [7]) of the same compound?
Answer: 2 (Herbicidal rate of 20% or more and less than 40%)

Question: What about the “R: persian speedwell, herbicidal effect” value (persian speedwell [8]) of the same compound?
Answer: 5 (Herbicidal rate of 90% or more (almost completely withered))

Question: And the “I: wild oat, herbicidal effect rating” value (wild oat [9])?
Answer: 0 (Herbicidal rate of 5% or less (almost no effect))

Question: What about the “M: velvetleaf, herbicidal effect rating” value (velvetleaf [10]) of the same compound?
Answer: 1 (Herbicidal rate of 5% or more and less than 20%)

Question: What about the “I: wild oat, herbicidal effect” value (wild oat [11]) of the same compound?
Answer: 0 (Herbicidal rate of 5% or less (almost no effect))

Question: And the “L: windgrass, herbicidal effect rating” value (windgrass [12])?
Answer: 0 (Herbicidal rate of 5% or less (almost no effect))

Question: And the “P: chickweed, herbicidal effect” value (chickweed [13])?
Answer: 5 (Herbicidal rate of 90% or more (almost completely withered))

Question: And the “L: windgrass, herbicidal effect” value (windgrass [14])?
Answer: 5 (Herbicidal rate of 90% or more (almost completely withered))

Question: And the “R: persian speedwell, herbicidal effect rating” value (persian speedwell [15])?
Answer: 5 (Herbicidal rate of 90% or more (almost completely withered))

Question: And the “herbicidal effect on H (barnyard grass), rating 0-5” value (barnyard grass [16])?
Answer: 5 (Herbicidal rate of 90% or more (almost completely withered))

Question: What about the “M: velvetleaf, herbicidal effect” value (velvetleaf [17]) of the same compound?
Answer: 5 (Herbicidal rate of 90% or more (almost completely withered))

Question: What about the “G: green foxtail, herbicidal effect” value (green foxtail [18]) of the same compound?
Answer: 5 (Herbicidal rate of 90% or more (almost completely withered))

Question: And the “P: chickweed, herbicidal effect rating” value (chickweed [19])?
Answer: 1 (Herbicidal rate of 5% or more and less than 20%)

Question: And the “herbicidal effect on D (Chinese sprangletop), rating 0-5” value (Chinese sprangletop)?
Answer: 4 (Herbicidal rate of 70% or more and less than 90%)

Question: And the “G: green foxtail, herbicidal effect rating” value (green foxtail [20])?
Answer: 3 (Herbicidal rate of 40% or more and less than 70%)

Question: What about the “Herbicidal effect on A: late watergrass (grade 0-5)” value (late watergrass) of the same compound?
Answer: 3 (Herbicidal rate of 40% or more and less than 70%)

Question: What about the “F: southern crabgrass, herbicidal effect” value (southern crabgrass [21]) of the same compound?
Answer: 3 (Herbicidal rate of 40% or more and less than 70%)

Question: What about the “H: barnyard grass, herbicidal effect” value (barnyard grass [22]) of the same compound?
Answer: 5 (Herbicidal rate of 90% or more (almost completely withered))

Question: And the “H: barnyard grass, herbicidal effect rating” value (barnyard grass [23])?
Answer: 3 (Herbicidal rate of 40% or more and less than 70%)

Question: What about the “Herbicidal effect on B: Japanese bulrush (grade 0-5)” value (Japanese bulrush) of the same compound?
Answer: 0 (Herbicidal rate of 5% or less (almost no effect))

Question: And the “K: Italian ryegrass, herbicidal effect” value (Italian ryegrass [24])?
Answer: 5 (Herbicidal rate of 90% or more (almost completely withered))

Question: And the “K: Italian ryegrass, herbicidal effect rating” value (Italian ryegrass [25])?
Answer: 5 (Herbicidal rate of 90% or more (almost completely withered))

Question: And the “herbicidal effect on E (rice flat sedge), rating 0-5” value (rice flat sedge)?
Answer: 5 (Herbicidal rate of 90% or more (almost completely withered))

Question: What about the “Herbicidal effect on C: oval-leafed pondweed (grade 0-5)” value (oval-leafed pondweed) of the same compound?
Answer: 0 (Herbicidal rate of 5% or less (almost no effect))
